Assay results published in patent publication US6482800B1, “Methods to stimulate angiogenesis” (The University of Southern California, priority 1998, dated 2002).
Entries after “also recorded” stand apart in the source; their conditions may differ. Square brackets hold non-standard residues; d marks the D form. Ends that are not written are not given here. Nle = CCCC[C@H](N)C(=O)O

Assays:
[1] = test system: Ischemic Myocardial Tissue; experiment: Formation of collateral circulation in ischemic myocardial tissue after coronary artery ligation; assay type: in vivo, Rabbits; conditions: rabbit, peptide 1 mg/ml; for Number of blood vessels present in the infarct site, Mean ± SEM: left circumflex and left anterior descending arteries ligated, 0.05 ml in Hydron vehicle injected in cardiac muscle, necropsy from day 7, microscopic examination; for Vascularization of the infarct site: 0.05 ml injected distal to coronary occlusion, versus vehicle
Protocol: Rabbits underwent a surgical procedure under intramuscular anesthesia (Ketamine and Rompum) after shaving with animal clippers and preparation with betadine and isopropyl alcohol. A midline sternotomy was performed. After exposure of the pericardial sac, a three centimeter incision was made into the pericardium. After visualization of the epicardial surface, two coronary arteries, the left circumflex and the left anterior descending arteries, were exposed and ligated by 4-0 Vicryl suture. Vehicle (10% Hydron, 60% ethanol and 1% polyethylene glycol), with or without peptide (1 mg/ml, 0.05 ml) was injected in the cardiac muscle distal to the site of coronary occlusion. The sternum was then closed with 2-0 Silk. The muscle and skin were then closed with 3-0 Dexon II suture. Starting at 7 days after surgery, the animals were euthanized and necropsies performed. The number of blood vessels present in the infarct site was assessed grossly and by microscopic evaluation.

[2] = Unspecified test of effectiveness of AII fragments
AT2 receptor = biological target: T1, AT2 receptor (Homo sapiens, UniProt P50052); conditions: cited from earlier work
T1 sequence (P50052 1-363): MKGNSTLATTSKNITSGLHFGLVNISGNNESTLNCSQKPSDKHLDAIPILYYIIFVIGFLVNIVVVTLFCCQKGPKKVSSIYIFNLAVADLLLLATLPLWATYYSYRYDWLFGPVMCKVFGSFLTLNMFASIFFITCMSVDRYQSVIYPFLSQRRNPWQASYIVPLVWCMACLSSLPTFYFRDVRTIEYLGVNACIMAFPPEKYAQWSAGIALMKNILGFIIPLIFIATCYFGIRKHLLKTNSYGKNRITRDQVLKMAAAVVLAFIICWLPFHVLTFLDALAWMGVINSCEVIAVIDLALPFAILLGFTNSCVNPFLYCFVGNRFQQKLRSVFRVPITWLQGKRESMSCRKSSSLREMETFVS

[3] = test system: Living skin equivalent (LSE) graft tissue; experiment: Engraftment of living skin equivalent (LSE) on full thickness skin excision; assay type: in vivo, Swiss nude mice; conditions: LSE soaked 15 minutes in 1.0 mg/ml peptide; day 7; compared to untreated LSE
Protocol: Male Swiss nude mice (22-24 g) were anesthetized with an intramuscular injection of Ketaset/Rompun and a 1 cm×1 cm full thickness skin excision was made on their dorsal surface. Living skin equivalent (LSE) was placed in the defect and trimmed with microscissors so that no gap was observed between the edges of the mouse skin and the LSE. The mice were divided into 6 groups based upon the peptide tested: (0 [LRS-Dextrose], or 1.0 mg/ml AII or AII analogues, AII (1-7) [SEQ ID NO:4]; Ala4AIII [SEQ ID NO:18]; Pro3AII [SEQ ID NO:31]; and Ile8AII [SEQ ID NO: 42]; see Table 3) and the LSE was soaked for 15 minutes in lactated Ringers solution with 5% dextrose with or without peptides prior to placement. After the graft was placed, the dorsal surface of the mouse was covered by petrolatum-embedded gauze followed by two adhesive bandages. After recovery from anesthesia, the mice were returned to their individual cages and observed daily until euthanasia. The mice received intramuscular analgesia for the first three days after surgery. No mouse lost its bandages prior to necropsy or bandage removal on day 7. The mice were necropsied on day 7. At necropsy, the degree of graft take and the appearance of the grafted tissue was noted prior to placement of the biopsy in 10% buffered formalin in preparation for paraffin embedding and section for hematoxylin and eosin staining.

burn areas = experiment: Partial thickness thermal injury model; assay type: in vivo, Hartley guinea pigs; conditions: 1 mg/ml peptide in 10% low-viscosity CMC, topical on burn; day 7
rabbit corneal eye = rabbit corneal eye model; cited from earlier work
[4] = test system: chick chorioallantoic membrane; conditions: chick chorioallantoic membrane model; cited from earlier work
rat kidneys = conditions: cited from earlier work

| Substance | Number of blood vessels present in the infarct site, Mean ± SEM [1] | Vascularization of the infarct site [1] | further results |
| --- | --- | --- | --- |
| DRKYIHP [Analogue 5GD] | 24.55 ± 2.34 | increase vascularization |  |
| Asp-Arg-Val-Tyr-Ile-His-Pro (DRVYIHP) [AII(1-7)] | 80.6 ± 4.5 | increase vascularization |  |
| His-Pro-Phe (HPF) [AII(6-8)] |  |  | Effectiveness (test not specified) [2]: not to be effective |
| Asp-Arg-Val-Tyr-Ile-His-Pro-Phe (DRVYIHPF) [AII] |  |  | Affinity for AT2 relative to AT1 (AT2 receptor): 100 times |
| DRVAIHP [Analogue 1GD] | 23.4 ± 8.6 | increase vascularization |  |
| DRPYIHP [Analogue 2GD] | 31.2 ± 5.62 | increase vascularization |  |
| Tyr-Ile-His-Pro-Phe (YIHPF) [AII(4-8)] |  |  | Effectiveness (test not specified) [2]: not to be effective; also recorded: ineffective |
| DR(nor)YIHP (DR[Nle]YIHP) [Analogue 9GD] | 21.2 ± 2.8 | increase vascularization |  |
| Asp-Arg-Val-Tyr-Ile-His-Pro-Phe [AII] | 29.8 ± 12.3 | increase vascularization | Angiogenesis (vascular channel formation) in graft tissue [3]: increased; Endothelial cell production in graft tissue [3]: increased; Blood flow response (angiogenesis) after thermal injury, compared to control (burn areas): increased blood flow response compared to control; Angiogenic activity (rabbit corneal eye): angiogenic; Angiogenic activity [4]: angiogenic; Activation of collateral circulation via preformed blood vessels (rat kidneys): activate collateral circulation |
